Series [1] is described as follows: In vitro metabolic stability in cryopreserved human hepatocytes. The format is in vitro ADME. The note with it: 1 μM test compound. As to the method:
Investigation of In Vitro Metabolic Stability in Cryopreserved Human Hepatocytes (Including Calculation of Hepatic In Vivo Blood Clearance (CL) and Maximal Oral Bioavailability (Fmax))
Cryopreserved Hepatocytes (e.g. purchased from Celsis InVitroTechnologies) were briefly thawed, washed with 45 mL pre-warmed in in vitro GRO HT medium and centrifuged for 5 min at 50×g. The cell pellet was resuspended in 5 ml of Krebs-Henseleit […] (KHB). Cell viability was determined by trypan blue exclusion.
For the metabolic stability assay liver cells were distributed in WME containing 5% FCS to glass vials at a density of 1.0×10^6 vital cells/ml. The test compound was added to a final concentration of 1 μM. During incubation, the hepatocyte suspensions were continuously shaken at 580 rpm and aliquots were taken at 2, 8, 16, 30, 45 and 90 min, to which equal volumes of cold methanol were immediately added. Samples were frozen at −20° C. over night, after subsequently centrifuged for 15 minutes at 3000 rpm and the supernatant was analyzed with an Agilent 1290 HPLC-system with LCMS/MS detection.
The half-life of a test compound was determined from the concentration-time plot. From the half-life the intrinsic clearances were calculated. […] The hepatic in vivo blood clearance (CL) and the maximal oral bioavailability (Fmax) was calculated.

A further series deals with T1, PDE3A(677-1141) (Homo sapiens, UniProt Q14432).
T1 construct: purified PDE3A catalytic domain, PDE3A(677-1141)
The series is described as follows: Differential scanning fluorimetry (DSF) binding to purified PDE3A catalytic domain. Particulars: 5 μM PDE3A, 100 μM compound. As to the method: Binding buffer: 20 mM Hepes pH 7.4, 100 μM TCEP, 1 mM MgCl2, 150 mM NaCl.
On the technique in general: In DSF a fluorescence change marks the thermal transition of the protein.

The target of another series is T2, PDE3A (Homo sapiens, UniProt Q14432).
T2 construct: endogenous in cells; host or cells: HeLa
In words: Linker-affinity purification of molecular target of DNMDP and immunoblotting (competition). The note with it: HeLa cell lysate, 10 μM compound. The format is binding. On the procedure: To identify the molecular target of DNMDP, an affinity purification was performed using an (R)-des-nitro-DNMDP solid-phase tethered linker analogue (FIG. 10A) incubated with HeLa cell lysate. […] It was competed for the molecular target by adding either an excess of trequinsin or separate enantiomers of DNMDP, where only the (R)-enantiomer was cytotoxic. […] Binding of PDE3A to the linker analogue was blocked by both trequinsin and (R)-DNMDP, but not by the non-cytotoxic enantiomer (S)-DNMDP (FIG. 9C). Thus both trequinsin and (R)-DNMDP prevented the binding of PDE3A to the tethered DNMDP analogue, and it was concluded that both molecules bind PDE3A directly.
HeLa cells were washed with ice-cold PBS before lysed with NP-40 lysis buffer (150 mM NaCl, 10% glycerol, 50 mM Tris-Cl pH 8.0, 50 mM MgCl2, 1% NP-40) supplemented with EDTA-free protease inhibitors (Roche) and phosphatase inhibitor mixtures I and II (Calbiochem). Cell lysates were incubated on ice for at least 2 minutes and subsequently centrifuged for 10 minutes at 4° C. at 15,700×g after which the supernatant was quantified using BCA protein assay kit (Pierce). […] total HeLa cell lysate was incubated with 3 μl Affi-Gel 102 resin (BioRad) coupled to affinity linker DNMDP-2L in a total volume of 400 μl for four hours. Prior to incubation, indicated compounds were added to affinity purifications at a final concentration of 10 μM. Samples were washed three times with lysis buffer containing corresponding compound concentrations of 10 μM. Proteins bound to Affi-Gel 102 resin were reduced, denatured, and separated using Tris-Glycine gels (Novex) and transferred to nitrocellulose membranes using the iBlot transfer system (Novex). Membranes were incubated overnight at 4° C. with primary antibodies against PDE3A (1:1000, Bethyl). Incubation with secondary antibodies (1:20,000, LI-COR Biosciences) for two hours at room temperature and subsequent detection (Odyssey Imaging System, LI-COR Biosciences) were performed according to manufacturer's recommendations.
A general note: A western blot detects proteins with antibodies after separation by electrophoresis.

For series [2], the system named is HeLa cells. The series is described as follows: Compound sensitivity testing in cell lines (cell viability, 48 h). In kind it is cell-based, human. As to the method: 1500 NCI-H1734 or 1000 A549 cells were plated in a 384-well plate in 40 μl of RPMI supplemented with 10% Fetal Bovine Serum and 1% Pen/Strep. 24 hours after plating, a compound-library of 1924 small molecules was added at a concentration of 10 μM. Staurosporine was used a positive control for cytotoxicity at a concentration of 10 μM, and DMSO was used a negative control at a concentration of 1%. All compounds were incubated for 48 hours with indicated small molecules. After 48 hours, 384-well plates were removed from the incubator and allowed to cool to room temperature for 20 minutes. Cell viability was assessed by adding 40 μl of a 25% CELLTITERGLO® (Promega) in PBS with a THERMO COMBI™ or multichannel-pipette and incubated for 10 minutes. The luminescence signal was read using a Perkin-Elmer EnVision. Viability percentage was calculated by normalizing to DMSO controls.
1000 HeLa (DMEM), 1000 A549 (RPMI), 500 MCF-7 (DMEM), 4000 PC3 (F12-K), 1000 NCI-H2122 (RPMI) or 1500 NCI-H1563 (RPMI) cells were plated in a 384-well plate in 40 μl of corresponding growth media supplemented with 10% Fetal Bovine Serum. 24 hours after plating, indicated compounds were added at indicated concentrations and incubated for 48 hours. Cell viability was assessed as described in Compound library screening in NCI-H1734 and A549 cell lines.

Series [3] has as its system HeLa cells. The series is described as follows: Follow-up dose-dependent rescue of DNMDP cytotoxicity (competition with DNMDP). In kind it is cell-based, human. The note with it: co-treatment with DNMDP, 48 h; for rescue of DNMDP cytotoxicity / competition (in words): up to 10 μM.
Series [4] has as its system HeLa cells. In words: Bioactives screen to rescue DNMDP induced cytotoxicity. The format is cell-based, human. The note with it: 20 μM bioactive + 30 nM DNMDP, 48 h. An excerpt: Most importantly, PDE4 competitive inhibitors and PDE4 allosteric modulators with similar IC50s for cAMP hydrolysis in vitro had different cellular activities and safety profiles in animal studies (Burgin et al., Nat Biotechnol 28, 63-70, 2010). To evaluate whether PDE inhibitors or other small molecules compete with DNMDP, the PHARMAKON 1600 collection of 1600 bioactive compounds (PHARMAKON 1600 is a unique collection of 1600 known drugs from US and International Pharmacopeia) was screened to identify compounds that were able to rescue cell death induced by DNMDP. HeLa cells were co-treated with 30 nM DNMDP (the EC70 concentration) and 20 μM of each bioactive compound. Cell viability after 48-hour treatment was assessed by ATP […] as described earlier.
Bioactives Screen to Rescue DNMDP Induced Cytotoxicity 1000 HeLa cells were plated in a 384-well plate in 40 μl of DMEM supplemented with 10% Fetal Bovine Serum and 1% Pen/Strep. 24 hours after plating, a compound-library of 1600 bioactive molecules (Pharmacon) was added at a concentration of 20 μM. In parallel to bioactive compound incubation, DNMDP was added to a final concentration of 30 nM and incubated for 48 hours. Cell viability was assessed as described in Compound library screening in NCI-H1734 and A549 cell lines. Linker-Affinity Purification of Molecular Target of DNMDP and Immunoblotting

T1 sequence (Q14432 677-1141): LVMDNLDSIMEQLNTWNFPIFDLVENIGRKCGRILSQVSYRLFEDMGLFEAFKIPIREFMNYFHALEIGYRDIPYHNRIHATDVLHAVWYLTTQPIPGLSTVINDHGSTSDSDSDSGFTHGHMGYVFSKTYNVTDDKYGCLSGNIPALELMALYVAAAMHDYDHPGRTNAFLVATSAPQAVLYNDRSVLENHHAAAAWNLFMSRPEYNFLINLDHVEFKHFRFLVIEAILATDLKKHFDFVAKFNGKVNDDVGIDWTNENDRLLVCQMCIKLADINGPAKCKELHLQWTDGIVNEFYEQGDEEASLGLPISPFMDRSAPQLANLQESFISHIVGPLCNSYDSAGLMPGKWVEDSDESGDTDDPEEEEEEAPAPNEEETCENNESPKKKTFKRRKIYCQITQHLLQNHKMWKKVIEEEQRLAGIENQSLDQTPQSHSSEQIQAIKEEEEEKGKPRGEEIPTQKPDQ
T2 sequence (Q14432 whole entry): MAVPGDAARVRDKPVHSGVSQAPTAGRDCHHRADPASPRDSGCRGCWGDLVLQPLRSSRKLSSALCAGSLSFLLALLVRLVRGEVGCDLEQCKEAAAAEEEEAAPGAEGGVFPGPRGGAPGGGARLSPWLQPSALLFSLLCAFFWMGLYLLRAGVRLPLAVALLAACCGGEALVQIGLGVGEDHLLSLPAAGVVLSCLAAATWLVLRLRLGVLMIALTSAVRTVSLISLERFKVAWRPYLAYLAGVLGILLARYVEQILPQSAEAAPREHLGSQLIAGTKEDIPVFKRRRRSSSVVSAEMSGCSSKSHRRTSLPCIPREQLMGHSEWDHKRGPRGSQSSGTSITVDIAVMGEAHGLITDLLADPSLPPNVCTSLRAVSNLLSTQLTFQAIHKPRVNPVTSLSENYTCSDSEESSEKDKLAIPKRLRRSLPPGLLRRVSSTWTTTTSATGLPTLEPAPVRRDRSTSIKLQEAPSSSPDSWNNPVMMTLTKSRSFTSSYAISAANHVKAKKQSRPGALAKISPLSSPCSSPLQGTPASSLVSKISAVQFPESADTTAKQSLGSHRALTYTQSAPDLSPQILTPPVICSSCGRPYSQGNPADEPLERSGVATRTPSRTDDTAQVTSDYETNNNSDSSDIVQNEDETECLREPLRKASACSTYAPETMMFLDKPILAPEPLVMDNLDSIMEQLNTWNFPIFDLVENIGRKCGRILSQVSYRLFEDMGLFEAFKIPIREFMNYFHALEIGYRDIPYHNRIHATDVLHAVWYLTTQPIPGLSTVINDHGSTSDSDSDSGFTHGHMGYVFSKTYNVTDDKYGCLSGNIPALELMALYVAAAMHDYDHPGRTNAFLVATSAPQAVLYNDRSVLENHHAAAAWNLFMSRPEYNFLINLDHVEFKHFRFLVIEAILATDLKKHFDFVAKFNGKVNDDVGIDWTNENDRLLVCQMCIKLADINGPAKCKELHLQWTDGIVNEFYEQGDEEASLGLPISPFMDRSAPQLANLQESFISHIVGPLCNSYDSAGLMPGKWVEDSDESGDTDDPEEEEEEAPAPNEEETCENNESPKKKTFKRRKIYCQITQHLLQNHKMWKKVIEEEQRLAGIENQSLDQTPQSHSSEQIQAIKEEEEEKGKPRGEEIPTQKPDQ

Take `C[C@@H]1CC(=O)NN=C1c1ccc(N2CCOCC2)c(F)c1` (single isomer, unassigned) [Compound 3]: in series [1], the “mean metabolic stability (Fmax)” value is 49%. Also, on PDE3A(677-1141), the Tm – broadly, the temperature at the midpoint of the melting transition – was found to be 59.0 ± 0.0 °C and the ΔTm (commonly the shift of the melting midpoint relative to a reference) at 100 µM was 6.6 °C. On to `CCN(CC)c1ccc(C2=NNC(=O)C[C@H]2C)cc1[N+](=O)[O-]` [(R)-DNMDP, (R)-6-(4-(diethylamino)-3-nitrophenyl)-5-methyl-4,5-dihydropyridazin-3(2H)-one], for which the “blocking of PDE3A binding to the tethered linker analogue” value on PDE3A was “blocked”. On the same count and under the same terms, to `CCN(CC)c1ccc(C2=NNC(=O)C[C@@H]2C)cc1[N+](=O)[O-]` [(S)-DNMDP] belongs “not”. As for `O=C1CN2Cc3c(ccc(Cl)c3Cl)N=C2N1` [Anagrelide, 6,7-dichloro-1,5-dihydroimidazo (2,1-b)quinazolin-2(3H)-one, reference compound], the Tm on PDE3A(677-1141) turned out to be 56.6 ± 0.0 °C.

As to `COc1cc2c(cc1OC)-c1c/c(=N\c3c(C)cc(C)cc3C)n(C)c(=O)n1CC2` [Trequinsin, 9,10-dimethoxy-3-methyl-2-(2,4,6-trimethylphenyl)imino-6,7-dihydropyrimido[6,1-a]isoquinolin-4-one, reference compound], the “effect on HeLa cell viability (in words)” value with HeLa cells [2] is “did not affect HeLa cell viability in any detectable way”. The Tm on PDE3A(677-1141) came to 66.2 ± 0.0 °C. Moreover, the EC50 in the series on HeLa cells [3] (Homo sapiens, read-out: RC50 (the concentration at which it achieved 50% rescue)) is below 1 nM. In addition, at PDE3A, the “blocking of PDE3A binding to the tethered linker analogue” value was “blocked”. Consider `CN(C(=O)CCCOc1ccc2[nH]c(=O)ccc2c1)C1CCCCC1` [cilostamide, N-cyclohexyl-N-methyl-4-[(2-oxo-1H-quinolin-6-yl)oxy]butanamide], for which the “rescue of DNMDP cytotoxicity / competition (in words)” value with HeLa cells [3] was “able to rescue DNMDP cytotoxicity in a dose-dependent manner”.

Consider `O=C1CCc2cc(OCCCCc3nnnn3C3CCCCC3)ccc2N1` [cilostazol, 6-[4-(1-cyclohexyl-1H-tetrazol-5-yl)butoxy]-3,4-dihydro-2(1H)-quinolinone], for which the “rescue of cell death induced by DNMDP (rank in screen)” value in the series on HeLa cells [4] is reported as “three most potent compounds”. Regarding `CC(C)C(=O)c1c(C(C)C)nn2ccccc12` [idubulast], in the series with HeLa cells [3], the “rescue of DNMDP cytotoxicity / competition (in words)” value is recorded as “not effective competitors”. Consider `Cc1[nH]c(=O)c(C#N)cc1-c1ccncc1` [milrinone, 2-methyl-6-oxo-1,6-dihydro-3,4′-bipyridine-5-carbonitrile], for which, in the series on HeLa cells [4], the “rescue of cell death induced by DNMDP (rank in screen)” value was “three most potent compounds”. Further, the “rescue of DNMDP cytotoxicity / competition (in words)” value in the series on HeLa cells [3] is “able to rescue DNMDP cytotoxicity in a dose-dependent manner”. For `CCCc1nn(C)c2c(=O)[nH]c(-c3cc(S(=O)(=O)N4CCN(C)CC4)ccc3OCC)nc12` [sildenafil, 1-[4-ethoxy-3-(6,7-dihydro-1-methyl-7-oxo-3-propyl-1H-pyrazolo[4,3-d]pyrimidin-5-yl)phenylsulfonyl]-4-methylpiperazine], the “rescue of DNMDP cytotoxicity / competition (in words)” value in the series with HeLa cells [3] is listed as “not effective competitors”.

For the origin of these results see patent publication US12053476B2, “Compounds, compositions and methods for cancer patient stratification and cancer treatment” (BAYER PHARMA AKTIENGESELLSCHAFT, priority 2016, dated 2024).
